Series [1] addresses Alpha-1B adrenergic receptor (Homo sapiens) (UniProt P35368). The following applies: Compound concentration 10.0 uM.
Series [2] deals with Proto-oncogene tyrosine-protein kinase receptor Ret (Homo sapiens), P07949 [M918T]. The following applies: Compound concentration 1000.0 nM.
Series [3] has as its target Histamine H2 receptor (Homo sapiens) (UniProt P25021). As to conditions: Compound concentration 10.0 uM.
The target in series [4] is D(2) dopamine receptor (Homo sapiens) (UniProt P14416). The following applies: Compound concentration 10.0 uM.
Series [5] addresses Mitogen-activated protein kinase 11 (Homo sapiens) (UniProt Q15759). The following applies: Compound concentration 1000.0 nM.
The target in series [6] is D(1A) dopamine receptor (Homo sapiens) (UniProt P21728). The following applies: Compound concentration 10.0 uM.
The target in series [7] is D(3) dopamine receptor (Homo sapiens) (UniProt P35462). The following applies: Compound concentration 10.0 uM.
Series [8] deals with Sodium/hydrogen exchanger 1 (Homo sapiens, UniProt P19634). As to the kind of experiment: pHi change assay with SLC9A1.
In series [9] the target is Gamma-aminobutyric acid receptor subunit alpha-1 (Rattus norvegicus) (UniProt P62813). As to the kind of experiment: GABAACENTR Eurofins-Panlabs selectivity data (BI). As to conditions: Compound concentration 10.0 uM.
Series [10] addresses Voltage-dependent L-type calcium channel subunit alpha-1C (DHP site) (Rattus norvegicus, UniProt P22002). As to the kind of experiment: CA+/DHPSI/RA Eurofins-Panlabs selectivity data (BI). The following applies: compound concentration 10 uM, read-out: % Ctrl.
For series [11], the target named is D(3) dopamine receptor (Homo sapiens) (UniProt P35462). As to the kind of experiment: D3/HU Eurofins-Panlabs selectivity data (BI). The following applies: Compound concentration 10.0 uM.
The target of series [12] is Sodium-dependent serotonin transporter (Homo sapiens) (UniProt P31645). As to the kind of experiment: 5HTTRANS/HU Eurofins-Panlabs selectivity data (BI). The following applies: Compound concentration 10.0 uM.
In series [13] the target is Mu-type opioid receptor (Homo sapiens) (UniProt P35372). As to the kind of experiment: MU/HU Eurofins-Panlabs selectivity data (BI). As to conditions: Compound concentration 10.0 uM.
The target in series [14] is Gamma-aminobutyric acid type B receptor subunit 1 (Homo sapiens) (UniProt Q9UBS5). As to the kind of experiment: GABA_B1A Eurofins-Panlabs selectivity data (BI). The following applies: Compound concentration 10.0 uM.
Series [15] deals with Glucocorticoid receptor (Homo sapiens) (UniProt P04150). As to the kind of experiment: GLUCOCORTICO Eurofins-Panlabs selectivity data (BI). The following applies: Compound concentration 10.0 uM.
For series [16], the target named is Estrogen receptor (Homo sapiens) (UniProt P03372). As to the kind of experiment: ERALPHA/H Eurofins-Panlabs selectivity data (BI). The following applies: Compound concentration 10.0 uM.
For series [17], the target named is Histamine H1 receptor (Homo sapiens) (UniProt P35367). As to the kind of experiment: H1/H Eurofins-Panlabs selectivity data (BI). The following applies: Compound concentration 10.0 uM.
For series [18], the target named is Glutamate receptor ionotropic, kainate 1 (Rattus norvegicus) (UniProt P22756). The following applies: Compound concentration 10.0 uM.
Series [19] addresses Beta-1 adrenergic receptor (Homo sapiens) (UniProt P08588). As to conditions: Compound concentration 10.0 uM.
The target in series [20] is Adenosine receptor A3 (Homo sapiens) (UniProt P0DMS8). As to the kind of experiment: A3/H Eurofins-Panlabs selectivity data (BI). As to conditions: Compound concentration 10.0 uM.
Series [21] deals with Muscarinic acetylcholine receptor M3 (Homo sapiens) (UniProt P20309). As to the kind of experiment: M3/HU Eurofins-Panlabs selectivity data (BI). The following applies: Compound concentration 10.0 uM.
Series [22] has as its target Protein kinase C alpha type (Mus musculus) (UniProt P20444). As to the kind of experiment: PHORBOLE/M Eurofins-Panlabs selectivity data (BI). As to conditions: Compound concentration 10.0 uM.
Series [23] is described as follows: Rat platelet swelling inhibition (rPSA) assay.
In series [24] the target is Delta-type opioid receptor (Homo sapiens) (UniProt P41143). As to the kind of experiment: DELTA/HU Eurofins-Panlabs selectivity data (BI). The following applies: Compound concentration 10.0 uM.
Series [25] concerns the target Beta-2 adrenergic receptor (Homo sapiens) (UniProt P07550). As to the kind of experiment: BETA2/HU Eurofins-Panlabs selectivity data (BI). The following applies: Compound concentration 10.0 uM.
For series [26], the target named is Muscarinic acetylcholine receptor M3 (Homo sapiens) (UniProt P20309). The following applies: Compound concentration 10.0 uM.
In series [27] the target is Endothelin-1 receptor (Homo sapiens) (UniProt P25101). As to the kind of experiment: ETA/HU Eurofins-Panlabs selectivity data (BI). The following applies: Compound concentration 10.0 uM.
The target in series [28] is Sodium-dependent dopamine transporter (Homo sapiens, UniProt Q01959). As to the kind of experiment: DATRANS/H Eurofins-Panlabs selectivity data (BI). The following applies: Compound concentration 10.0 uM.
In series [29] the target is B2 bradykinin receptor (Homo sapiens) (UniProt P30411). As to the kind of experiment: B2/HU Eurofins-Panlabs selectivity data (BI). As to conditions: Compound concentration 10.0 uM.
Series [30] addresses Thyroid hormone receptor alpha (Rattus norvegicus) (UniProt P63059). As to the kind of experiment: THYROID HORM Eurofins-Panlabs selectivity data (BI). As to conditions: Compound concentration 10.0 uM.
Series [31] addresses Neuropeptide Y receptor type 1 (Homo sapiens) (UniProt P25929). As to the kind of experiment: Y1/HU Eurofins-Panlabs selectivity data (BI). As to conditions: Compound concentration 10.0 uM.
A short description of series [32]: Human platelet swelling inhibition (hPSA) assay.
Series [33] deals with T1, 5-hydroxytryptamine receptor 3A (Homo sapiens) (UniProt P46098).
T1 sequence (whole entry): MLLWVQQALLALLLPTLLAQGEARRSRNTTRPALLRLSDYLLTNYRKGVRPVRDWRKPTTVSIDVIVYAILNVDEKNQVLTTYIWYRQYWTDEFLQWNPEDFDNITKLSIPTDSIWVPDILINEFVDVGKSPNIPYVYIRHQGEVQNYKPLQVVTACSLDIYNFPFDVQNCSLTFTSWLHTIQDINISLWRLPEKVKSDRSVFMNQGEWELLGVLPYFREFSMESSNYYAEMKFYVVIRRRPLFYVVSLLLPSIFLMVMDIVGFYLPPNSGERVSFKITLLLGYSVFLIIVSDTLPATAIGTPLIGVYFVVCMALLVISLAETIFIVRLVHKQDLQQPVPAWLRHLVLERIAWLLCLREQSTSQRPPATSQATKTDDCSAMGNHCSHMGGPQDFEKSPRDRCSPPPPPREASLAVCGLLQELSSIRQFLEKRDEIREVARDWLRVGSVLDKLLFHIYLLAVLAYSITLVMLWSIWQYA
As to the kind of experiment: 5HT3/HU Eurofins-Panlabs selectivity data (BI). As to conditions: Compound concentration 10.0 uM.

In series [34] the target is Histamine H3 receptor (Homo sapiens) (UniProt Q9Y5N1). As to the kind of experiment: H3/H Eurofins-Panlabs selectivity data (BI). As to conditions: Compound concentration 10.0 uM.
For series [35], the target named is Gamma-aminobutyric acid receptor subunit alpha-1 (Rattus norvegicus) (UniProt P62813). As to the kind of experiment: GABAA MUSCIMOL CENT Eurofins-Panlabs selectivity data (BI). The following applies: Compound concentration 10.0 uM.
For series [36], the target named is Glutamate receptor ionotropic, NMDA 1 (Rattus norvegicus) (UniProt P35439). As to the kind of experiment: NMDAGLSI/RA Eurofins-Panlabs selectivity data (BI). The following applies: Compound concentration 10.0 uM.
In series [37] the target is Sodium- and chloride-dependent GABA transporter 1 (Rattus norvegicus) (UniProt P23978). As to the kind of experiment: GABATRANS/RA Eurofins-Panlabs selectivity data (BI). The following applies: Compound concentration 10.0 uM.
Series [38] has as its target D(1A) dopamine receptor (Homo sapiens) (UniProt P21728). As to the kind of experiment: D1/HU Eurofins-Panlabs selectivity data (BI). As to conditions: Compound concentration 10.0 uM.
The target in series [39] is ATP-sensitive inward rectifier potassium channel 1 isoform X1 (Mesocricetus auratus) (UniProt A0A1U8CU73). As to conditions: Compound concentration 10.0 uM.
In series [40] the target is Alpha-1B adrenergic receptor (Homo sapiens) (UniProt P35368). As to the kind of experiment: ALPHA1B/R Eurofins-Panlabs selectivity data (BI). The following applies: Rattus norvegicus; Compound concentration 10.0 uM.

Data on 2 compounds can be found in ChEMBL document CHEMBL4507279, “Data for DCP probe BI-9627” (2021).

Molecules are shown by their SMILES. Active and inactive are the calls of the source. The calls are words filed in the database; no cut-off is given here.

Chain of Gamma-aminobutyric acid receptor subunit alpha-1 (Rattus norvegicus) (P62813 whole entry): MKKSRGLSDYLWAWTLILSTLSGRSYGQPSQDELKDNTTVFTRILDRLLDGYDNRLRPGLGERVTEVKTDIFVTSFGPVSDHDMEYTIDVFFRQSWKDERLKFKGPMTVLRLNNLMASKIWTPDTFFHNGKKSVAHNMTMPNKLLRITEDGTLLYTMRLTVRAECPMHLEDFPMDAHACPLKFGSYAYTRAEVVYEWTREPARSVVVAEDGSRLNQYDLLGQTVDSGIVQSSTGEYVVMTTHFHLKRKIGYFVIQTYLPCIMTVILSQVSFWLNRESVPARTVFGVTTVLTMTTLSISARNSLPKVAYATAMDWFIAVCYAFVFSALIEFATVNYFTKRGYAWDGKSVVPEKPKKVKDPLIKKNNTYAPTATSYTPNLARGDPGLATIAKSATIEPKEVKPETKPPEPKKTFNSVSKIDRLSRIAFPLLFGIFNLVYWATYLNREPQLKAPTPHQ
Chain of Alpha-1B adrenergic receptor (Homo sapiens) (P35368 whole entry): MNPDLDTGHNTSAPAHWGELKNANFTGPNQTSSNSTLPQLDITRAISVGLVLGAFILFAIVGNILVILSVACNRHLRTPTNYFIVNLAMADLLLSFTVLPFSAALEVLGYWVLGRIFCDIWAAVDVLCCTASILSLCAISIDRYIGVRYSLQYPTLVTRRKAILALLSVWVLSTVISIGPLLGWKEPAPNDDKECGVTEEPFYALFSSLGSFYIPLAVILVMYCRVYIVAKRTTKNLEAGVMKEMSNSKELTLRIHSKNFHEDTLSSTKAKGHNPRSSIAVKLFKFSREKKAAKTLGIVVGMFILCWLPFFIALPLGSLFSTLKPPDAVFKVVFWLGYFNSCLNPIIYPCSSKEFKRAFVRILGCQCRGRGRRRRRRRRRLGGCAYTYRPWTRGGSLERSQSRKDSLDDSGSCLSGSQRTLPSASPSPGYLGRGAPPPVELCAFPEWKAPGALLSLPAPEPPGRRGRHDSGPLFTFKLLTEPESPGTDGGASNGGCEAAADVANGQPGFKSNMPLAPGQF
Chain of D(3) dopamine receptor (Homo sapiens) (P35462 whole entry): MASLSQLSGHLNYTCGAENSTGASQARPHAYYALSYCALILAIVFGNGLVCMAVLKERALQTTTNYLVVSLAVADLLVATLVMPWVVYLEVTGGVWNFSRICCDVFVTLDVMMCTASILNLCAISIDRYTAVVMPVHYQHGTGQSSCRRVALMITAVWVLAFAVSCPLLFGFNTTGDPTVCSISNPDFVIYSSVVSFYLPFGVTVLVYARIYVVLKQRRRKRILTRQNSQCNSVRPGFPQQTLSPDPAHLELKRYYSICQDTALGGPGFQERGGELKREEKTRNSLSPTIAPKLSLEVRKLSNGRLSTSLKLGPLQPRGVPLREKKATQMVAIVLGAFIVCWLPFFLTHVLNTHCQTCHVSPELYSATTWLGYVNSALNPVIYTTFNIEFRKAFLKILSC
Chain of Muscarinic acetylcholine receptor M3 (Homo sapiens) (P20309 whole entry, looked up): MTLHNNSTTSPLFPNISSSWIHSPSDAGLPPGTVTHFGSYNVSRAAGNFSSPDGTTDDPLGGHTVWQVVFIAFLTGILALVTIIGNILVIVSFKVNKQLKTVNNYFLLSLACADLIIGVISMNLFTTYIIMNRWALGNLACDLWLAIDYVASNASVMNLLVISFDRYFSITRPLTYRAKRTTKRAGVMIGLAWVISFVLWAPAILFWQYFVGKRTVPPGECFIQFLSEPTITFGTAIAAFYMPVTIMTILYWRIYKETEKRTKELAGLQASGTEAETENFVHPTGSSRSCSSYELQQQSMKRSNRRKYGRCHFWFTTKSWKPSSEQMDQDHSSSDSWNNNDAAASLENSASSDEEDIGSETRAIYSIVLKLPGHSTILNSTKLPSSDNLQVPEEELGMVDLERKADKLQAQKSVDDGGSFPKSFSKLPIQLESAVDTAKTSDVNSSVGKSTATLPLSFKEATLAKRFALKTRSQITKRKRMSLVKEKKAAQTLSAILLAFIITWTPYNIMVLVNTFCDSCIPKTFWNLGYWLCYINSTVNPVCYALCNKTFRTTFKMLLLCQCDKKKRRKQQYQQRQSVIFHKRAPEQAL
Chain of D(1A) dopamine receptor (Homo sapiens) (P21728 whole entry, canonical isoform): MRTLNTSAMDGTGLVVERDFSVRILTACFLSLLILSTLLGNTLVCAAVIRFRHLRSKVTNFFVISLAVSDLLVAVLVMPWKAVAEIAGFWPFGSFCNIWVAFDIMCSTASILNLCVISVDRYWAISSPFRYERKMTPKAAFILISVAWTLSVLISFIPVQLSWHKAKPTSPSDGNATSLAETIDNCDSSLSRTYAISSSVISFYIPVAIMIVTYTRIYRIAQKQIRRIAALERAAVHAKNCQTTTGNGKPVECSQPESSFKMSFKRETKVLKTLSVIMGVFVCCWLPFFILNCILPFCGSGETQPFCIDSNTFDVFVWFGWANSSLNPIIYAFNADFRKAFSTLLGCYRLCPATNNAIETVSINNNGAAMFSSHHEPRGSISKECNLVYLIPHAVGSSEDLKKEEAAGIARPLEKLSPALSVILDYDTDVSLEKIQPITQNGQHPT
Chain of Mu-type opioid receptor (Homo sapiens) (P35372 whole entry): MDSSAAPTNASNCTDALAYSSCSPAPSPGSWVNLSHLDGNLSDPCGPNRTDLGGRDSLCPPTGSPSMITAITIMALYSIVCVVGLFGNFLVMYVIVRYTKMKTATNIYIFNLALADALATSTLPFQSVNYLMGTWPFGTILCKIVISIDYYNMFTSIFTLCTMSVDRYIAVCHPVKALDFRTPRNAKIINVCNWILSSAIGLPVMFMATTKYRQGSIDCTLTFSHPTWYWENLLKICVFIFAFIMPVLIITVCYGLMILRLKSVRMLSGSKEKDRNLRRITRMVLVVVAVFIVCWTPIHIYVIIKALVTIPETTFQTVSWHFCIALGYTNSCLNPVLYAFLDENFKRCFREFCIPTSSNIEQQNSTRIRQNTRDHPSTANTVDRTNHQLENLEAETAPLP
Chain of B2 bradykinin receptor (Homo sapiens) (P30411 whole entry): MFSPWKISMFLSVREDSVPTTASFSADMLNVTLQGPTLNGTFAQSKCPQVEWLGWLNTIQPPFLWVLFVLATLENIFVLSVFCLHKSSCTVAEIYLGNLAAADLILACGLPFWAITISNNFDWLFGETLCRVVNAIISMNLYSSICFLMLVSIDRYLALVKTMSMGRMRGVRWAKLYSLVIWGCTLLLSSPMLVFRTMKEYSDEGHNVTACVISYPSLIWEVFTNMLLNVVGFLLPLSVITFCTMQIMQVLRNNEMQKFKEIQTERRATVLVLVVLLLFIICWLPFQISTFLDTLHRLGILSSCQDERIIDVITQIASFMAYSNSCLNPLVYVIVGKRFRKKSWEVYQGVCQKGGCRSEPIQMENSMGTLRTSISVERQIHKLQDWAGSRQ
Chain of Delta-type opioid receptor (Homo sapiens) (P41143 whole entry): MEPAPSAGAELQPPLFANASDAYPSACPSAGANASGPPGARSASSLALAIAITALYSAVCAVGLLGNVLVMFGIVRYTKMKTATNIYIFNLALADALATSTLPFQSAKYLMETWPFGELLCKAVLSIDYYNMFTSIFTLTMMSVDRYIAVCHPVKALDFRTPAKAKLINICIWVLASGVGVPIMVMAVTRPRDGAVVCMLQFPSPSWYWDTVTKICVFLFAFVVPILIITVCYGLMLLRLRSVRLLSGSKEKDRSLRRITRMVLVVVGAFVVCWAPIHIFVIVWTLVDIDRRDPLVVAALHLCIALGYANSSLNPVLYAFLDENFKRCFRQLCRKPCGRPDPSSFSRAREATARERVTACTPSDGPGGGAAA
Chain of Beta-2 adrenergic receptor (Homo sapiens) (P07550 whole entry, looked up): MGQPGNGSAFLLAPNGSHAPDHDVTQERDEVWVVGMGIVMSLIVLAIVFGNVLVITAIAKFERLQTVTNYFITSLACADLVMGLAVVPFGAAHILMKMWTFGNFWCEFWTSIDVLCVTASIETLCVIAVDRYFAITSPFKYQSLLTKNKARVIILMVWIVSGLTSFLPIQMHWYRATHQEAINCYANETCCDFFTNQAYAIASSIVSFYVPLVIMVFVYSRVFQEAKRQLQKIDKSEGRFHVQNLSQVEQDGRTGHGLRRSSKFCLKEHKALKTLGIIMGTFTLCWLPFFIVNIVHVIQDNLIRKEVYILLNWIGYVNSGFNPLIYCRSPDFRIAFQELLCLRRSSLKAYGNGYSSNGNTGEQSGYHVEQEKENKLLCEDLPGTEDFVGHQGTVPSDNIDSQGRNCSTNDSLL

As for `CC(=O)N1CCC(c2ccc(C(=O)NC3=NCCN3)cc2C(F)(F)F)CC1` [BI 0054], the inhibition (usually the change of the read-out against control, counted positive when it falls) is -0.596% in [1]; -9.37% in series [3]; -4.57% in series [4]; 4.8% in series [6]; -7.75% in series [7]. In addition, the residual activity in [2] was 90%; in [5] it was 98%. Besides, the IC50 (usually the concentration that gives 50% inhibition) in series [8] is recorded as > 10 µM (not active).

In the case of `CC(=O)N1CCC(c2ccc(C(=O)NC(=N)N)cc2C(F)(F)F)CC1` [BI 9627], the residual activity in series [9] was 92%; in series [11], 117%; in series [12], 89%; in [13] it was 91%; in [14], 103%; in series [15], 98%. In addition, the residual activity is 106% in series [16]; 98% in [17]; 96% in series [18]; 105% in [20]; 79% in [21]; 101% in series [22]. In addition, the residual activity in series [24] is 113%; in series [25] it was 102%; in series [27], 103%; in series [28] it was 101%; in [29], 105%; in series [30], 93%. Besides, the residual activity in series [31] is 94%; in [33], 98%; in [34], 109%; in [35], 89%; in [36] it was 109%; in series [37], 101%. Moreover, the residual activity in series [38] is 94%; in [39], 96%; in series [40], 95%. Moreover, in series [10], the activity at 10 µM is given as 77% (not active). The inhibition was -9.29% in series [19] and 12.1% in [26]. For the same compound, the IC50 was 0.138 µM (active) in series [23] and 0.031 µM (active) in series [32].
